Results from publication PMC8819907 (Journal of Experimental & Clinical Cancer Research : CR, 2022).
“Also recorded” adds a separate entry of the source. Like-named read-outs stand apart in the source and are kept apart here.

Tests used:
[1] = tested on: BRAF V600E or V600K mutation-positive melanoma; conditions: 40 patients with prior BRAF inhibitor; 2 mg PO QD; cited from earlier work
CYP 2B6 and 3A4 = conditions: cited from earlier work
[2] = cited from earlier work
[3] = tested on: patients in clinical trials of trametinib; conditions: cited from earlier work
rabbits = conditions: rabbit, in vivo; cited from earlier work
[4] = dose normalized to 2 mg
[5] = tested on: patients with advanced melanoma; conditions: cited from earlier work
[6] = tested on: patients with solid tumors or lymphoma; parameters: method as in ref 20 (a number printed in a supplementary file, which may have a reference list of its own: not looked up in the article's list); conditions: cited from earlier work
MEK1 = tested on: MEK1; parameters: method as in ref 17 (a number printed in a supplementary file, which may have a reference list of its own: not looked up in the article's list); conditions: read-out: IC50 against MEK1; cited from earlier work
[7] = cited from earlier work; remark: listed apart in the source
MEK2 = tested on: MEK2; parameters: method as in ref 17 (a number printed in a supplementary file, which may have a reference list of its own: not looked up in the article's list); conditions: read-out: IC50 against MEK2; cited from earlier work
pMEK1 kinase activity = target: pMEK1 kinase activity; parameters: method as in ref 19 (a number printed in a supplementary file, which may have a reference list of its own: not looked up in the article's list); conditions: cited from earlier work
[8] = tested on: untreated pancreatic cancer; parameters: method as in ref 25 (a number printed in a supplementary file, which may have a reference list of its own: not looked up in the article's list); conditions: gemcitabine plus trametinib 2 mg QD; cited from earlier work
advanced solid tumors = assay: Tumor response (RECIST 1.1) and PFS (Kaplan Meier); type: in vivo, human;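 note: patients were grouped by hepatic function into four groups, and PFS differences among these groups were tested with a log rank test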
[9] = trametinib and its metabolites; cited from earlier work
[10] = tested on: BRAF-mutant Colo205, A375P F11s, and HT-29 human tumor xenograft; conditions: 0.3 mg/kg; cited from earlier work
[11] = 2 mg monotherapy, 96 total patients

CC(=O)Nc1cccc(-n2c(=O)n(C3CC3)c(=O)c3c(Nc4ccc(I)cc4F)n(C)c(=O)c(C)c32)c1 [Trametinib, equimolecular combination of acetamide, N-[3-[3-cyclopropyl-5-[(2-fluoro-4-iodophenyl)amino]-3,4,6,7-tetrahydro6,8-dimethyl-2,4,7-trioxopyrido[4,3-d]pyrimidin-1(2H)-yl]phenyl] with 1,1’-sulfinylbis[methane]]
confirmed PR or CR [1]: None of the patients | CYP 2B6 and 3A4 inducer (CYP 2B6 and 3A4): weak | terminal half-life ([2]; after single dose administration): 127 h | volume of distribution (Vd) ([2]; following an IV microdose): 1060 L | plasma IV clearance ([2]; human, in vivo, iv): 3.21 L/h | plasma IV clearance as share of liver blood flow ([2]; human, in vivo, iv): approximately 1% | half-life ([2]; patients with normal liver function): approximately 4 days | absolute oral bioavailability ([2]; single 2 mg tablet relative to co-administered IV microdose): 72% | decrease in AUC(0-∞) with a high-fat, high-calorie meal ([2]; single dose, vs fasted): 10% | decrease in Cmax with a high-fat, high-calorie meal ([2]; single dose, vs fasted): 70% | grade 4 rash AE ([3]; 2 mg monotherapy, five studies): four patients | LFT changes grade 3 events [3, 11]: 26 | LFT changes grade 4 events [3, 11]: 6 patients | grade 1 or 2 pneumonitis ([3]; 2 mg monotherapy): three subjects | grade 3 diarrhea ([3]; 2 mg monotherapy): 17 patients | grade 3 pneumonitis ([3]; 2 mg monotherapy): six | grade 3 visual disorders ([3]; 2 mg monotherapy): six patients | grade 4 diarrhea ([3]; 2 mg monotherapy): none | grade 4 visual disorder ([3]; 2 mg monotherapy): one patient | cases of RPED ([3]; entire trametinib program as of 23 June 2013, monotherapy or combination): 14 cases | cases of RPED ([3]; integrated safety population, 2 mg once daily, five studies): five cases | Embryofetal toxicity (rabbits): embryotoxic and abortifacient | CLssF, Geo mean (%CV) ([4]; Mild (n = 6)): 5680.0 (45.5) mL/hr | CLssF, Mean (±SD) ([4]; Mild (n = 6)): 6200.0 (±2818.6) mL/hr | Cavg, Geo mean (%CV) ([4]; Mild (n = 6)): 14.7 (51.9) ng/mL | Cavg, Mean (±SD) ([4]; Mild (n = 6)): 16.2 (±8.4) ng/mL | Cmin, Geo mean (%CV) ([4]; Mild (n = 6)): 10.8 (57.3) ng/mL | Cmin, Mean (±SD) ([4]; Mild (n = 6)): 12.1 (±7.0) ng/mL | CLssF, Geo mean (%CV) ([4]; Mod (n = 3)): 6431.6 (8.4) mL/hr | CLssF, Mean (±SD) ([4]; Mod (n = 3)): 6446.4(±542.6) mL/hr | Cavg, Geo mean (%CV) ([4]; Mod (n = 3)): 13.0 (8.1) ng/mL | Cavg, Mean (±SD) ([4]; Mod (n = 3)): 13.0 (±1.1) ng/mL | Cmin, Geo mean (%CV) ([4]; Mod (n = 3)): 10.4 (22.4) ng/mL | Cmin, Mean (±SD) ([4]; Mod (n = 3)): 10.5 (±2.4) ng/mL | CLssF, Geo mean (%CV) ([4]; Norm (n = 10)): 4449.0 (36.0) mL/hr | CLssF, Mean (±SD) ([4]; Norm (n = 10)): 4675.0 (±1683.6) mL/hr | Cavg, Geo mean (%CV) ([4]; Norm (n = 10)): 18.7 (28.1) ng/mL | Cavg, Mean (±SD) ([4]; Norm (n = 10)): 19.5 (±5.5) ng/mL | Cmin, Geo mean (%CV) ([4]; Norm (n = 10)): 14.4 (29.8) ng/mL | Cmin, Mean (±SD) ([4]; Norm (n = 10)): 15.1 (±4.5) ng/mL | CLssF, Geo mean (%CV) ([4]; Sev (n = 3)): 8736.3 (36.5) mL/hr | CLssF, Mean (±SD) ([4]; Sev (n = 3)): 9141.3 (±3337.1) mL/hr | Cavg, Geo mean (%CV) ([4]; Sev (n = 3)): 9.5 (36.4) ng/mL | Cavg, Mean (±SD) ([4]; Sev (n = 3)): 10.0 (±3.6) ng/mL | Cmin, Geo mean (%CV) ([4]; Sev (n = 3)): 7.6 (32.3) ng/mL | Cmin, Mean (±SD) ([4]; Sev (n = 3)): 7.9 (±2.5) ng/mL | differences of PK parameters (Cmax, Cmin, Cavg, AUC0 − 24) between hepatic function groups ([4]; ANOVA): no significant differences; also recorded: not statistically different | Cardiomyopathy resolved ([5]; 10 of 14 patients): 71% | Pruritis ([5]; All Grades): 10% | Stomatitis ([5]; All Grades): 15% | Pruritis ([5]; Grades 3 and 4): 2% | Stomatitis ([5]; Grades 3 and 4): 2% | Dose reduction required for skin toxicities ([5]; in vivo): 12% | Severe skin toxicity ([5]; in vivo): 12% | overall incidence of skin toxicity ([5]; in vivo): 87% | permanent discontinuation for skin toxicities ([5]; in vivo): 1% | median time to onset of skin toxicity ([5]; range: 1 to 221 days): 15 days | median time to resolution of skin toxicity ([5]; range: 1 to 282 days): 48 days | MTD [6]: 3 mg QD | recommended phase 2 dose (RP2D) [6]: 2 mg QD | IC50 (MEK1): 700 pM | Cmax ([7]; 2 mg QD on Day 15): 23 ng/mL | mean AUC0-24 ([7]; 2 mg QD on Day 15): 376 ng·h/mL | Between-subject variability in exposure, AUC0-24 ([7]; across all dosing regimens): 20-41% | Between-subject variability in exposure, Cmax ([7]; across all dosing regimens): 27-50% | effective t1/2 ([7]; in vivo): approximately 4.5 days | steady state reached by ([7]; in vivo): ~15 days | IC50 (MEK2): […] | IC50 (pMEK1 kinase activity): 13000 pM | Median OS [8]: 8.4 months | ORR [8]: 22% | median PFS [8]: 16 weeks | median duration of responses [8]: […] | duration of SD (range) (advanced solid tumors; Mild): […] | median duration of SD (advanced solid tumors; Mild): […] | Best Response: Partial Response (advanced solid tumors; Mild DL1 2 mg): 0 (0) n (%) | Best Response: Progressive Disease (advanced solid tumors; Mild DL1 2 mg): 4 (66.7) n (%) | Best Response: Stable Disease (advanced solid tumors; Mild DL1 2 mg): 2 (33.3) n (%) | Best Response: Stable Disease (advanced solid tumors; Mild DL1 2 mg, listed as trametinib): 2 (33.3%) n (%) | median PFS (advanced solid tumors; Mild group): 1.74 months | duration of SD (range) (advanced solid tumors; Mod (1.5 mg)): […] | median duration of SD (advanced solid tumors; Mod (1.5 mg)): […] | duration of SD (range) (advanced solid tumors; Mod (2 mg)): […] | median duration of SD (advanced solid tumors; Mod (2 mg)): […] | Best Response: Partial Response (advanced solid tumors; Mod DL1 1.5 mg): 0 (0) n (%) | Best Response: Progressive Disease (advanced solid tumors; Mod DL1 1.5 mg): 1 (25.0) n (%) | Best Response: Stable Disease (advanced solid tumors; Mod DL1 1.5 mg): 3 (75.0) n (%) | Best Response: Stable Disease (advanced solid tumors; Mod DL1 1.5 mg, listed as trametinib): 3 (75%) n (%) | Best Response: Partial Response (advanced solid tumors; Mod DL+1 2 mg): 0 (0) n (%) | Best Response: Progressive Disease (advanced solid tumors; Mod DL+1 2 mg): 1 (33.3) n (%) | Best Response: Stable Disease (advanced solid tumors; Mod DL+1 2 mg): 2 (66.7) n (%) | Best Response: Stable Disease (advanced solid tumors; Mod DL+1 2 mg, listed as trametinib): 2 (66%) n (%) | median PFS (advanced solid tumors; Mod group): 3.45 months | duration of SD (range) (advanced solid tumors; Norm): […] | median duration of SD (advanced solid tumors; Norm): […] | Best Response: Partial Response (advanced solid tumors; Norm 2 mg): 2 (15.4) n (%) | Best Response: Progressive Disease (advanced solid tumors; Norm 2 mg): 4 (30.8) n (%) | Best Response: Stable Disease (advanced solid tumors; Norm 2 mg): 7 (53.8) n (%) | Best Response: Stable Disease (advanced solid tumors; Norm 2 mg, listed as trametinib): 7 (53.8%) n (%) | median PFS (advanced solid tumors; Norm group): 3.62 months | duration of SD (range) (advanced solid tumors; Sev (1 mg)): […] | median duration of SD (advanced solid tumors; Sev (1 mg)): […] | Best Response: Partial Response (advanced solid tumors; Sev DL1 1 mg): 0 (0) n (%) | Best Response: Progressive Disease (advanced solid tumors; Sev DL1 1 mg): 1 (25.0) n (%) | Best Response: Stable Disease (advanced solid tumors; Sev DL1 1 mg): 3 (75.0) n (%) | Best Response: Stable Disease (advanced solid tumors; Sev DL1 1 mg, listed as trametinib): 3 (75%) n (%) | Best Response: Partial Response (advanced solid tumors; Sev DL+1 1.5 mg): 0 (0) n (%) | Best Response: Progressive Disease (advanced solid tumors; Sev DL+1 1.5 mg): 1 (100%) n (%) | Best Response: Stable Disease (advanced solid tumors; Sev DL+1 1.5 mg): 0 (0) n (%) | Best Response: Stable Disease (advanced solid tumors; Sev DL+1 1.5 mg, listed as trametinib): 0 (0%) n (%) | median PFS (advanced solid tumors; Sev group): 2.11 months | Best Response: Partial Response (advanced solid tumors; Total): 2 | Best Response: Progressive Disease (advanced solid tumors; Total): 12 | Best Response: Stable Disease (advanced solid tumors; Total): 17 | excreted in the feces [9]: ≥ 81% | excreted in urine [9]: ≤ 19% | tumor regression in the Colo205 model [10]: tumor regression was observed
